In PubChem BioAssay (NCI):
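Cells were grown in 96-well plates and exposed to each compound for 48 hours at five concentrations; endpoints were interpolated linearly between bracketing concentrations, or set to the highest concentration if not reached. GI50 marks 50% less growth. TGI denotes the concentration required for complete inhibition of growth.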

What was measured:
Assay in all cases: DTP human tumour cell line panel, 48 h
HT29 colon = system: HT29 colon
UO-31 renal = system: UO-31 renal
SK-MEL-28 melanoma = system: SK-MEL-28 melanoma
LOX IMVI melanoma = system: LOX IMVI melanoma
NCI/ADR-RES ovarian = system: NCI/ADR-RES ovarian
K-562 leukemia = system: K-562 leukemia
NCI-H460 lung = system: NCI-H460 lung
OVCAR-5 ovarian = system: OVCAR-5 ovarian

Structure (SMILES)	GI50 (HT29 colon) [µM]	TGI (HT29 colon) [µM]	GI50 (UO-31 renal) [µM]	TGI (UO-31 renal) [µM]	GI50 (SK-MEL-28 melanoma) [µM]	TGI (SK-MEL-28 melanoma) [µM]	GI50 (LOX IMVI melanoma) [µM]	TGI (LOX IMVI melanoma) [µM]	GI50 (NCI/ADR-RES ovarian) [µM]	TGI (NCI/ADR-RES ovarian) [µM]	GI50 (K-562 leukemia) [µM]	TGI (K-562 leukemia) [µM]	GI50 (NCI-H460 lung) [µM]	TGI (NCI-H460 lung) [µM]	GI50 (OVCAR-5 ovarian) [µM]	TGI (OVCAR-5 ovarian) [µM]
O=C(c1ccccc1)c1ccc(O)c2ncccc12	10.1	> 100	1.28	13.5	14.6	> 100	1.87	13.1	0.428	6.03	3.4	> 100	1.75	16.2	4.87	22.3
N#CSCC1CC(O)(c2ccccc2)CC(c2ccc(Cl)cc2)O1 (stereo unspecified)	3.44	8.74	1.61	4.84	1.84	4.57	1.59	2.95			2.41	9.77	2.33	6.38	12.8	26
Cc1ccc(N(/C=C/C(=O)C(F)(F)F)CC(=O)c2ccc(Cl)c(Cl)c2)cc1	4.73	17.9	5.77	19.1	11.2	23.2	10.1	21.8	2.76	13.4	3.37	11.7	8.73	21	4.7	20.6
CN(N=O)C(=O)Nc1ccc(C(=O)O)cc1		> 100		> 100		> 100		> 100		> 100		> 100		> 100		> 100
C/C(=C1/N=C(c2ccccc2)OC1=O)c1ccccc1		> 100				> 100		> 100				> 100		> 100		> 100
NC(=NCCO)c1ccc(N2CCCN(c3ccc(C(N)=NCCO)cc3)CC2)cc1	> 100	> 100			> 100	> 100	> 100	> 100	> 100	> 100					> 100	> 100
COc1ccc2c(c1)C(=O)c1c-2n(CCCN=[N+]=[N-])c(=O)c2cc(N)ccc12	47.6	> 100	> 100	> 100		> 100	> 100	> 100	> 100	> 100	> 100	> 100	> 100	> 100	> 100	> 100
O=C(O)c1cc2cc(O)ccc2[nH]1	> 100	> 100	> 100	> 100	> 100	> 100	> 100	> 100	> 100	> 100			> 100	> 100	> 100	> 100
COc1ccc(C2SCC(=O)N2NC(=O)C(O)c2ccccc2)cc1 (stereo unspecified)	> 100	> 100	> 100	> 100	> 100	> 100	> 100	> 100	> 100	> 100	55.5	> 100	> 100	> 100	> 100	> 100
Cc1ccc(S(=O)(=O)NNC(C[N+](=O)[O-])c2ccccc2)cc1 (stereo unspecified)		3.99		48.6				> 100		> 100		> 100		45.1		> 100
CNC1=CC(=O)C2=C(C1=O)C1C3=C(C(=O)C(Br)=C(OC)C3=O)C2c2ccccc21 (stereo unspecified)	2.71	> 50	1.98	5.87	2.34	> 50			1.55	8.18	1.35	3.01	11.1	> 50	2.15	8.63
C[C@@H]1CC[C@@H]2[C@@H]1[C@H](OC(=O)c1ccc3ccccc3c1)[C@]1(C3CCCCC3)C[C@@H](OC(=O)CO)[C@@]2(C)O1	4.38	18.3			13.9	28.5	13.1	28.1	0.543	19.4	11.4	40.9	9.27	23.7	14.8	30
CC(=O)Oc1ccccc1C(=O)NCCC[Se]C#N	3.51	11.2			1.89	4.82	1.51	5.26			3.46	21.1	1.69	4.52	2.78	6.91
COC(=O)c1ccc(NC(N)=NCC(C)(C)COc2ccc(C(F)(F)F)cc2)nc1	1.66	3.21	1.35	2.7	1.64	3.08			1.68	3.34			1.67	3.36	1.6	3.08
Cc1cc(S(=O)(=O)Nc2nc3ccccc3[nH]2)c(SCc2ccccc2)cc1Cl			> 100	> 100	> 100	> 100	28.4	> 100	> 100	> 100	66.3	> 100	> 100	> 100	> 100	> 100
C=C(CN(C)Cc1ccccc1)c1ccc(C(=O)Nc2ccccc2N)cc1			2.08	8.41	7.79	> 50	1.05	3.69	1.07	4.94	3.22	> 50	19.9	> 50	5.46	21.4
Clc1ccc(-c2nc(C(Cl)Cl)nc3cc(-c4ccccc4)nn23)cc1	0.751	> 50	2.04	> 50			> 50	> 50	1.27	> 50	1.81	> 50	0.787	2.15	1.53	> 50
